In US8470789B2, “Method for inducing and accelerating cells” (DCPrime B.V., priority 2008, dated 2013):

Columns and labels:
CD34+ MUTZ3 cells = assay: Drug-induced differentiation of isolated CD34+ MUTZ3 cells; type: cell-based, human; conditions: for share of induced CD1a+ cells also expressing Langerin: CD34+ sorted cells
Experimental: (§1) For mitoxantrone and doxorubicin cultures, 0.1-0.2 million cells/ml of MUTZ3 progenitors or CD34+, CD14+ and double negative (DN) magnetic bead sorted (MACS) MUTZ3 subsets (Miltenyi Biotec, Bergisch Gladbach, Germany) were seeded in 12-well plates in MUTZ3 routine medium or MUTZ3-DC/LC medium in the absence or presence of 1.04 nM, 2.08 nM, 5.6 nM, 16.7 nM mitoxantrone or 16.7 nM or 100 nM doxorubicin and were cultured for 72-96 hours before quantification of viable cells by trypan blue exclusion and phenotypic characterization by flowcytometry. DC and LC were matured (as above) on day 3 or 4 for 24 hours and were functionally tested in mixed leukocyte reaction or migration assays. In case of ABC transporter inhibition, 200 nM Ko-143 was added on day 0 to block BCRP activity.
(§2) Cells were immunophenotyped using the following FITC- and for PE-conjugated Mabs reactive against: CD1a (1:25), CD54 (1:25), CD80 (1:25), CD86 (1:25), CD40 (1:10) (PharMingen, San Diego, Calif.), CD14 (1:25), HLA-DR (1:25), DC-SIGN (1:10) (BD Biosciences, San Jose, Calif.), CD83 (1:10), CD34 (1:10), Langerin (1:10) (Immunotech, Marseille, France). In short, 2.5 to 5·10^4 cells were washed in PBS supplemented with 0.1% BSA and 0.02% NaN3 and incubated with specific or corresponding control Mabs for 30 minutes at 4° C. Where applicable, AnnexinV and/or PI (Propidium iodide) were added after marker staining and 10 minutes prior to analysis. Cells were washed and analyzed on a FACS-calibur flow cytometer (Becton and Dickinson, San Jose, Calif.) equipped with CellQuest analysis software and the results were expressed as mean or median fluorescence intensity or the percentage of positive cells.
To see whether the skewing effect was due to CD34^+ cell death, automatically leading to an altered CD34^+/CD14^+ ratio or whether it induced differentiation of CD34^+ cells into CD14^+ cells and LC, isolated CD34^+ and CD14^+ cells were incubated with 16.7 nM mitoxantrone or 100 nM doxorubicin for 72 hours and were analyzed for differentiation induction.

MUTZ3 progenitors [1] = assay: 96 hour cytotox assay (Trypan blue exclusion); type: cell-based, human
Experimental: as §1
MUTZ3 progenitor cells were analyzed for their sensitivity to the cytostatic drug mitoxantrone. […] (An example of such trypan blue assay is: place a suitable volume of a cells suspension in appropriate tube add an equal volume of 0.4% Trypan blue and gently mix, let stand for 5 minutes at room temperature. Place 10 μl of stained cells in a hemocytometer and count the number of viable (unstained) and dead (stained) cells. Calculate the average number of unstained cells in each quadrant, and multiply by 2*10^4 to find cells/ml. The percentage of viable cells is the number of viable cells divided by the number of dead and viable cells, and the IC50 can be determined)

MUTZ3 progenitors [2] = assay: Expansion and DC marker expression of MUTZ3 progenitors cultured with drug (flow cytometry); type: cell-based, human
Experimental: as §1, §2
Similar experiments were carried out with the drug doxorubicin.

[3] = test system: MUTZ3 subpopulations (CD14+, CD34+, DN); assay: Apoptosis and cell death (Annexin V) in MACS-separated MUTZ3 subpopulations; type: cell-based, human
Experimental: as §1, §2

CD14+ MUTZ3 cells = assay: Drug-induced differentiation of isolated CD14+ MUTZ3 cells; type: cell-based, human; conditions: 72 hours, vs PBS control
Experimental: as §1
as §2, with “In short, 2.5 to 5·10^4 cells were washed in PBS supplemented with 0.1% BSA and 0.02% NaN3 and incubated with specific or corresponding control Mabs for 30 minutes at 4° C. Where applicable, AnnexinV and/or PI (Propidium iodide) were added after marker staining and 10 minutes prior to analysis.” left out, “cells. […]” for “cells.”

[4] = test system: MUTZ3-DC / peripheral blood lymphocytes; assay: Mixed leukocyte reaction (MLR), T cell proliferation; type: cell-based, human; conditions: day 4 mitoxantrone-generated DC
Experimental: 1·10^2-3·10^4 DC were co-cultured with 1·10^5 peripheral blood lymphocytes for 4 days in 96-wells plates in IMDM (Iscove's modified dulbecco's medium) containing 10% human pooled serum (HPS), pen/strep/glut and 2ME. At day 4, 2.5 μCi/ml [^3H]-thymidine (6.7 Ci/mmol, MP Biomedicals, Irvine, Calif.) was added per well for 16 hours. Plates were harvested onto glass fiber filtermats (Packard Instruments, Groningen, The Netherlands) using a Skatron cell harvester (Skatron Instruments, Norway), and [^3H]-thymidine incorporation was quantified using a Topcount NXT Microbetacounter (Packard, Meriden, Conn.).
(§3) If such mitoxantrone-generated DC are to be used for future vaccination strategies, they need to be functionally fully active. Therefore MUTZ3-DC cultured in the absence or presence of mitoxantrone, were analyzed in a trans-well assay for their capacity to migrate towards the chemokines CCL19 and CCL21 (FIG. 7A) and were tested in a MLR for their capacity to stimulate allogeneic T cell proliferation (FIG. 7B).

[5] = test system: MUTZ3-DC and -LC cultures; assay: Titration of mitoxantrone in MUTZ3-DC and -LC cultures, phenotype analysis; type: cell-based, human
Experimental: as §1, §2
In MUTZ3-DC and -LC cultures, a 2-step titration of the 16.7 nM mitoxantrone concentration was performed and DC/LC phenotypes were analyzed after 72-96 hours.

MUTZ3-LC cultures = assay: Acceleration of MUTZ3-LC differentiation in the presence of cytokines; type: cell-based, human
Experimental: The AML-derived CD34+ MUTZ3 cell line was cultured as described before (Masterson A. J. (2002) Blood 100, 701-703.). In brief, MUTZ3 progenitors were cultured in MEM-alpha (Minimum essential medium, Gibco) containing 20% fetal calves serum (FCS), 100 IU/ml sodium-penicillin, 100 microg/ml streptomycin, 2 mM L-glutamine (pen/strep/glut), 50 microM beta-mercaptoethanol (2ME) and 10% 5637 conditioned medium (MUTZ3 routine medium) in 12-well plates (Co-star) at a concentration of 0.2 million cells/ml and were passaged twice weekly. LC were cultured in MEM-alpha containing 20% FCS, pen/strep/glut, 2ME and 10 ng/ml TGF-beta 1 (Biovision, Mountain View, Calif.), 100 ng/ml rhGM-CSF (Sagramostim, Berlex) and 2.5 ng/ml TNFalpha (Strathmann Biotec) (MUTZ3-LC medium) for 10 days in 12-well plates at a concentration of 0.1 million cells/ml, adding cytokines at day 0, 4 and 7. Interstitial DC were cultured in MEM-alpha containing 20% FCS, pen/strep/glut, 2ME and 10 ng/ml IL-4 (R&D), 100 ng/ml rhGM-CSF and 2.5 ng/ml TNFalpha (MUTZ3-DC medium) Where applicable, immature DC and LC were matured, respectively, by adding 50 ng/ml TNFalpha, 100 ng/ml IL-6 (Strathmann Biotec), […] (Strathmann Biotec) and 1 microg/ml prostaglandin E2 (PGE2) (Sigma Aldrich) for 48 hours.
as §1, §2
Next we tested whether the addition of mitoxantrone or doxorubicin at the start of MUTZ3-LC cultures could boost differentiation. […] In FIG. 4A FSC/SSC plots of day 4 LC cultured with PBS or mitoxantrone and CD1a/Langerin expression on these cultures are depicted.

human skin DC = assay: Human skin explant DC migration after intradermal injection; type: cell-based
Experimental: To establish whether mitoxantrone could be beneficial as a local adjuvant, human skin explants were intra-dermally injected with GM-CSF and IL-4 in combination with 2.08 nM, 5.6 nM or 16.7 nM mitoxantrone and 6 mm punch biopsies were floated in medium containing the same concentration of mitoxantrone. Skin DC were allowed to migrate from the biopsies for 2 days, after which they were harvested, quantified and phenotyped.

[6] = test system: CD14+ monocytes isolated from blood; assay: Response of CD14+ monocytes isolated from blood to mitoxantrone; type: cell-based, human
MUTZ3-DC = assay: Trans-well migration towards CCL19 and CCL21; type: cell-based, human; conditions: day 4 mitoxantrone-generated DC
Experimental: as §1, §3

[7] = test system: CD34+ heamatopoietic precursors isolated from human blood; assay: Response of CD34+ heamatopoietic progenitors from blood to mitoxantrone; type: cell-based; conditions: 16.7 nM mitoxantrone
[8] = 2.08 nM mitoxantrone, mature day 4 MUTZ3-DC/LC

COc1ccc2c3c([nH]c2c1)[C@H](CC(C)C)N1C(=O)[C@H](CCC(=O)OC(C)(C)C)NC(=O)[C@@H]1C3 [Ko-143]
abrogation of mitoxantrone-induced CD1a and Langerin expression by BCRP inhibitor (CD34+ MUTZ3 cells; 200 nM Ko-143 added on day 0, mitoxantrone-treated CD34+ MUTZ3 cells): could not abrogate

COc1cccc2c1C(=O)c1c(O)c3c(c(O)c1C2=O)C[C@@](O)(C(=O)CO)C[C@@H]3O[C@H]1C[C@H](N)[C@H](O)[C@H](C)O1 [doxorubicin]
IC70 concentration on MUTZ3 (MUTZ3 progenitors [1]; cytotoxic effect): ~100 nM
LC differentiation of MUTZ3 progenitors (MUTZ3 progenitors [2]; 16.7 nM doxorubicin): no effects were observed
LC differentiation of MUTZ3 progenitors (MUTZ3 progenitors [2]; IC70 concentration of doxorubicin (~100 nM)): induced LC differentiation of MUTZ3 progenitors
apoptosis and cell death in the three MUTZ3 subpopulations, compared with mitoxantrone ([3]; 100 nM doxorubicin): Comparable results
percentages of CD1a+ or Langerin+ cells in CD14+ cells (CD14+ MUTZ3 cells; 100 nM doxorubicin): not affected
CD1a and Langerin expression on CD34+ MUTZ3 cells (CD34+ MUTZ3 cells; 100 nM doxorubicin, 72 hours): induced CD1a and Langerin expression
share of induced CD1a+ cells also expressing Langerin (CD34+ MUTZ3 cells; 100 nM doxorubicin, 72 hours): approximately 50%

O=C1c2c(O)ccc(O)c2C(=O)c2c(NCCNCCO)ccc(NCCNCCO)c21 [mitoxantrone]
capacity to stimulate allogeneic T cell proliferation [4]: equipped to induce T cell proliferation
effect on MUTZ3-DC and -LC differentiation ([5]; 2.08 nM mitoxantrone, 72-96 hours): robust effect
HLA-DR expression vs control cultures ([5]; 2.08 nM mitoxantrone, day 4 vs day 7 control): even higher than on the control cultures
amount of CD1a, Langerin, CD80, CD40 and CD83 expressing cells [5, 8]: increased
expression levels of CD80, CD86, CD40 and HLA-DR [5, 8]: enhanced
Langerin expression in MUTZ3-DC cultures ([5]; cultures supplied with mitoxantrone): increased
expression levels of HLA-DR and CD54 (MUTZ3-LC cultures; 16.7 nM mitoxantrone, day 4): higher expression levels
expression of co-stimulatory molecules CD80 and CD86 (MUTZ3-LC cultures; 16.7 nM mitoxantrone, day 4): enhanced expression
percentage of CD14+ and CD34+ cells (MUTZ3-LC cultures; 16.7 nM mitoxantrone, day 4, 3 experiments, p=0.04 and p=0.02): significant decrease
amount of cells expressing maturation marker CD83 (MUTZ3-LC cultures; 16.7 nM mitoxantrone, day 4, p=0.03): significant raise
day on which fully differentiated cells were obtained (MUTZ3-LC cultures; mitoxantrone with cytokines, control cultures 8-10 days): 4 days
cells CD1a hi Langerin+ (MUTZ3-LC cultures; single dose 16.7 nM mitoxantrone at day 0, read day 4, control 25%): 76%
increase in amount of migrated skin DC (human skin DC; 2.08 nM mitoxantrone with GM-CSF and IL-4, intradermal, 2 days): 50-60%
increase in amount of migrated skin DC (human skin DC; 5.6 nM mitoxantrone with GM-CSF and IL-4, intradermal, 2 days): 50-60%
amount of migrated skin DC (human skin DC; 16.7 nM mitoxantrone with GM-CSF and IL-4, intradermal, 2 days): only slightly increased
amount of skin emigrating DC (human skin DC; low dose of mitoxantrone in plain medium, intradermal): increased the amount of skin emigrating DC
cell viability [6]: no effect
differentiation induction [6]: nor was any differentiation induction observed
IC50 (MUTZ3 progenitors [1]; Homo sapiens, 96 hour, Trypan blue exclusion, n=3): 1.5 ± 0.5 nM
IC60 concentration on MUTZ3 progenitors (MUTZ3 progenitors [1]; cytotoxic effect): 5.6 nM
IC70 concentration on MUTZ3 (MUTZ3 progenitors [1]; cytotoxic effect): 16.7 nM
capacity to migrate towards CCL19 and CCL21 (MUTZ3-DC): comparable to day 7 matured control DC
cell division (expansion) (MUTZ3 progenitors [2]; 5.6 nM and 16.7 nM mitoxantrone, 72 hours): dramatically compromising cell division
differentiation of MUTZ3 progenitors (CD34+/CD14+ ratio, CD1a, Langerin, CD86, CD80) (MUTZ3 progenitors [2]; 5.6 nM and 16.7 nM mitoxantrone, 72 hours, no differentiating cytokines): drove the surviving MUTZ3 progenitors to differentiation
CD34+ and CD14+ cell content ([7]; 72 hours, Flt3-L and SCF): loss of most CD34 positive cells and an increase in CD14 positive cells
percentage of CD1a+ Langerin+ cells ([7]; within 72 hours, LC-skewing cytokines, n=2): increase
apoptosis and cell death, CD34+ population ([3]; mitoxantrone, 72 hours): sensitive to the drug
apoptosis and cell death, CD14+ population ([3]; mitoxantrone, 72 hours, Annexin V): not affected
apoptosis and cell death, DN population ([3]; mitoxantrone, 72 hours, sensitivity relative to CD34+): to a lesser extent
percentages of CD1a+ or Langerin+ cells in CD14+ cells (CD14+ MUTZ3 cells; 16.7 nM mitoxantrone): not affected
share of induced CD1a+ cells also expressing Langerin (CD34+ MUTZ3 cells; 16.7 nM mitoxantrone, 72 hours): approximately 50%
CD1a and Langerin expression in CD34+ subset (CD34+ MUTZ3 cells; 16.7 nM mitoxantrone, 72 hours, n=3, p=0.02 CD1a, p=0.03 Langerin): significant increase
